{"source": "patent US11352339B2", "about": "(MISSION THERAPEUTICS LIMITED, priority 2016, dated 2022)"}
{"target": "USP30 (Homo sapiens (Human), UniProt Q70CQ3)", "sequence (Q70CQ3 57-517)": "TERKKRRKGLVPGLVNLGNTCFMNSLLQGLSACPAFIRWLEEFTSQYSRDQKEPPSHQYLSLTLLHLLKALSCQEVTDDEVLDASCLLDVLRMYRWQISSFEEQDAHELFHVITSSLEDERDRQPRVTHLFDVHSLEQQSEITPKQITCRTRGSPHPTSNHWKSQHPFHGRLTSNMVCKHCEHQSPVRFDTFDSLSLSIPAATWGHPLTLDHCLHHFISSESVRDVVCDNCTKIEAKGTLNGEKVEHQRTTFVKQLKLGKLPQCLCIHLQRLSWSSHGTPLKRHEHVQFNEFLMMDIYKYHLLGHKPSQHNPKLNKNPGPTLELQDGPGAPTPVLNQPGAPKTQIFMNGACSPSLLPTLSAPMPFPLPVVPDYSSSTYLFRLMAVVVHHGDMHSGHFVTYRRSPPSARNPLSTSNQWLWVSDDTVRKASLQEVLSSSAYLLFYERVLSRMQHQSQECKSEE", "assay": "USP30 Biochemical IC50 Assay", "conditions": "fluorescence polarisation, TAMRA labelled peptide linked to ubiquitin; 30 min pre-incubation, read after 2 h; read-out: IC50 range", "description": "Reactions were performed in duplicate in black 384 well plates (small volume, Greiner 784076) in a final reaction volume of 21 μl. Either 1 μl of 50% DMSO or diluted compound was added to the plate. […] Enzyme and compound were incubated for 30 min at room temp. Reactions were initiated by the addition of 50 nM of TAMRA labelled peptide linked to ubiquitin via an iso-peptide bond as fluorescence polarisation substrate. Reactions were read immediately after addition of substrate and following a 2 h incubation at room temperature. Readings were performed on a Pherastar Plus (BMG Labtech). λ Excitation 540 nm; λ Emission 590 nm.", "units": {"IC50": "nM"}}
{"smiles": "CNC(=O)c1ccc(-c2ccc3nc(C4CCN(C#N)C4)[nH]c3c2)cc1", "note": "(stereo not shown) [Example 75, 4-(2-(1-Cyanopyrrolidin-3-yl)-1H-benzo[d]imidazol-6-yl)-N-methylbenzamide]", "IC50": "100 to 1000"}
{"smiles": "Cc1ccc(F)c(-c2ccc3nc(C4CCN(C#N)C4)[nH]c3c2)c1", "note": "(stereo not shown) [Example 76, 3-(6-(2-Fluoro-5-methylphenyl)-1H-benzo[d]imidazol-2-yl)pyrrolidine-1-carbonitrile]", "IC50": "< 100"}
{"smiles": "CC(C)Oc1ccc(-c2ccc3nc(C4CCN(C#N)C4)[nH]c3c2)cn1", "note": "(stereo not shown) [Example 77, 3-(6-(6-Isopropoxypyridin-3-yl)-1H-benzo[d]imidazol-2-yl)pyrrolidine-1-carbonitrile]", "IC50": "100 to 1000"}
{"smiles": "CC(C)Cn1cc(-c2ccc3nc(C4CCN(C#N)C4)[nH]c3c2)cn1", "note": "(stereo not shown) [Example 78, 3-(6-(1-Isobutyl-1H-pyrazol-4-yl)-1H-benzo[d]imidazol-2-yl)pyrrolidine-1-carbonitrile]", "IC50": "1000 to 10000"}
{"smiles": "N#CN1CCC(c2nc3ccc(-c4ccc(C(=O)NCc5ccccc5)cc4)cc3[nH]2)C1", "note": "(stereo not shown) [Example 79, N-Benzyl-4-(2-(1-cyanopyrrolidin-3-yl)-1H-benzo[d]imidazol-6-yl)benzamide]", "IC50": "100 to 1000"}
{"smiles": "N#CN1CCC(c2nc3cc(-c4ccncc4)cnc3[nH]2)C1", "note": "(stereo not shown) [Example 80, 3-(6-(Pyridin-4-yl)-3H-imidazo[4,5-b]pyridin-2-yl)pyrrolidine-1-carbonitrile]", "IC50": "100 to 1000"}
{"smiles": "N#CN1CCC(c2nc3cc(-c4ccccc4)cnc3[nH]2)C1", "note": "(stereo not shown) [Example 83, 3-(6-Phenyl-3H-imidazo[4,5-b]pyridin-2-yl)pyrrolidine-1-carbonitrile]", "IC50": "100 to 1000"}
{"smiles": "N#Cc1ccc(-c2cnc3[nH]c(C4CCN(C#N)C4)nc3c2)cc1", "note": "(stereo not shown) [Example 84, 3-(6-(4-Cyanophenyl)-3H-imidazo[4,5-b]pyridin-2-yl)pyrrolidine-1-carbonitrile]", "IC50": "100 to 1000"}
{"smiles": "N#Cc1cccc(-c2cnc3[nH]c(C4CCN(C#N)C4)nc3c2)c1", "note": "(stereo not shown) [Example 85, 3-(6-(3-Cyanophenyl)-3H-imidazo[4,5-b]pyridin-2-yl)pyrrolidine-1-carbonitrile]", "IC50": "100 to 1000"}
{"smiles": "COc1ccc(-c2cnc3[nH]c(C4CCN(C#N)C4)nc3c2)cn1", "note": "(stereo not shown) [Example 86, 3-(6-(6-Methoxypyridin-3-yl)-3H-imidazo[4,5-b]pyridin-2-yl)pyrrolidine-1-carbonitrile]", "IC50": "100 to 1000"}
{"smiles": "N#CN1CCC(c2nc3cc(-c4ccc5[nH]ncc5c4)cnc3[nH]2)C1", "note": "(stereo not shown) [Example 87, 3-(6-(1H-Indazol-5-yl)-3H-imidazo[4,5-b]pyridin-2-yl)pyrrolidine-1-carbonitrile]", "IC50": "100 to 1000"}
{"smiles": "N#CN1CCC(c2nc3cc(-c4cn[nH]c4)cnc3[nH]2)C1", "note": "(stereo not shown) [Example 88, 3-(6-(1H-Pyrazol-4-yl)-3H-imidazo[4,5-b]pyridin-2-yl)pyrrolidine-1-carbonitrile]", "IC50": "1000 to 10000"}
{"smiles": "CNC(=O)c1cccc(-c2cnc3[nH]c(C4CCN(C#N)C4)nc3c2)c1", "note": "(stereo not shown) [Example 89, 3-(2-(1-Cyanopyrrolidin-3-yl)-3H-imidazo[4,5-b]pyridin-6-yl)-N-methylbenzamide]", "IC50": "1000 to 10000"}
{"smiles": "N#CN1CCC[C@H]1c1nc2ccc(-c3ccccc3)cc2[nH]1", "note": "[Example 94, (S)-2-(6-Phenyl-1H-benzo[d]imidazol-2-yl)pyrrolidine-1-carbonitrile]", "IC50": "1000 to 10000"}
{"smiles": "N#CN1CCC(c2nc3cc(-c4ccccc4)ccc3[nH]2)C1", "note": "(stereo not shown) [Example 95, 3-(5-Phenyl-1H-benzo[d]imidazol-2-yl)pyrrolidine-1-carbonitrile]", "IC50": "100 to 1000"}
{"smiles": "Cn1c([C@@H]2CCCN2C#N)nc2cc(-c3ccccc3)ccc21", "note": "[Example 96, (S)-2-(1-Methyl-5-phenyl-1H-benzo[d]imidazol-2-yl)pyrrolidine-1-carbonitrile]", "IC50": "10000 to 100000"}
{"smiles": "N#CN1CCC(c2nc3ccc(-c4ccccc4)nc3[nH]2)C1", "note": "(stereo not shown) [Example 97, 3-(5-Phenyl-3H-imidazo[4,5-b]pyridin-2-yl)pyrrolidine-1-carbonitrile]", "IC50": "1000 to 10000"}
{"smiles": "N#CN1CCC(c2nc3nccc(-c4ccccc4)c3[nH]2)C1", "note": "(stereo not shown) [Example 98, 3-(7-Phenyl-3H-imidazo[4,5-b]pyridin-2-yl)pyrrolidine-1-carbonitrile]", "IC50": "1000 to 10000"}
{"smiles": "Cc1nc2nc(C3CCN(C#N)C3)[nH]c2cc1-c1ccccc1", "note": "(stereo not shown) [Example 99, 3-(5-Methyl-6-phenyl-3H-imidazo[4,5-b]pyridin-2-yl)pyrrolidine-1-carbonitrile]", "IC50": "100 to 1000"}
{"smiles": "Cc1c(-c2ccccc2)cnc2nc(C3CCN(C#N)C3)[nH]c12", "note": "(stereo not shown) [Example 100, 3-(7-Methyl-6-phenyl-3H-imidazo[4,5-b]pyridin-2-yl)pyrrolidine-1-carbonitrile]", "IC50": "100 to 1000"}
{"smiles": "Cn1c(C2CCN(C#N)C2)nc2cc(-c3ccccc3)cnc21", "note": "(stereo not shown) [Example 101, 3-(3-Methyl-6-phenyl-3H-imidazo[4,5-b]pyridin-2-yl)pyrrolidine-1-carbonitrile]", "IC50": "100 to 1000"}
{"smiles": "N#CN1CCC(c2nnc(-c3ccccn3)[nH]2)C1", "note": "(stereo not shown) [Example 105, 3-(5-(Pyridin-2-yl)-4H-1,2,4-triazol-3-yl)pyrrolidine-1-carbonitrile]", "IC50": "1000 to 10000"}
{"smiles": "N#CN1CCC(c2nnc(-c3ccccc3)[nH]2)C1", "note": "(stereo not shown) [Example 106, 3-(5-Phenyl-4H-1,2,4-triazol-3-yl)pyrrolidine-1-carbonitrile]", "IC50": "1000 to 10000"}
{"smiles": "N#CN1CCC(c2nnc(-c3ccc4nc[nH]c4c3)[nH]2)C1", "note": "(stereo not shown) [Example 107, 3-(5-(1H-Benzo[d]imidazol-6-yl)-4H-1,2,4-triazol-3-yl)pyrrolidine-1-carbonitrile]", "IC50": "1000 to 10000"}
{"smiles": "N#CN1CCC(c2nnc(-c3ccc4nccn4c3)[nH]2)C1", "note": "(stereo not shown) [Example 108, 3-(5-(Imidazo[1,2-a]pyridin-6-yl)-4H-1,2,4-triazol-3-yl)pyrrolidine-1-carbonitrile]", "IC50": "1000 to 10000"}
{"smiles": "N#CN1CCC(c2n[nH]c(-c3cc(-c4ccccc4)ccn3)n2)C1", "note": "(stereo not shown) [Example 109, 3-(5-(4-Phenylpyridin-2-yl)-4H-1,2,4-triazol-3-yl)pyrrolidine-1-carbonitrile]", "IC50": "100 to 1000"}
{"smiles": "N#CN1CCC(c2nnc(-c3cccc(-c4ccccc4)n3)[nH]2)C1", "note": "(stereo not shown) [Example 110, 3-(5-(6-Phenylpyridin-2-yl)-4H-1,2,4-triazol-3-yl)pyrrolidine-1-carbonitrile]", "IC50": "100 to 1000"}
{"smiles": "N#CN1CCC(c2n[nH]c(-c3cccc(-c4ccccc4)c3)n2)C1", "note": "(stereo not shown) [Example 111, 3-(3-([1,1′-Biphenyl]-3-yl)-1H-1,2,4-triazol-5-yl)pyrrolidine-1-carbonitrile]", "IC50": "< 100"}
{"smiles": "N#CN1CCC(c2nnc(-c3ccc(-c4ccccc4)cc3)[nH]2)C1", "note": "(stereo not shown) [Example 112, 3-(3-([1,1′-Biphenyl]-4-yl)-1H-1,2,4-triazol-5-yl)pyrrolidine-1-carbonitrile]", "IC50": "100 to 1000"}
{"smiles": "N#CN1CCC(c2cc(-c3cccc(-c4ccccc4)c3)no2)C1", "note": "(stereo not shown) [Example 117, 3-(3-([1,1′-Biphenyl]-3-yl)isoxazol-5-yl)pyrrolidine-1-carbonitrile]", "IC50": "< 100"}
{"smiles": "N#CN1CCC(c2ncc(-c3ccccc3)c(=O)[nH]2)C1", "note": "(stereo not shown) [Example 120, 3-(6-Oxo-5-phenyl-1,6-dihydropyrimidin-2-yl)pyrrolidine-1-carbonitrile]", "IC50": "1000 to 10000"}
{"smiles": "Cc1cn(-c2ccc3n(c2=O)CCN([C@@H]2CCN(C#N)C2)C3=O)cn1", "note": "[Example 121, (R)-3-(7-(4-Methyl-1H-imidazol-1-yl)-1,6-dioxo-1,3,4,6-tetrahydro-2H-pyrido[1,2-a]pyrazin-2-yl)pyrrolidine-1-carbonitrile]", "IC50": "1000 to 10000"}
{"smiles": "CNC(=O)c1cc(-c2ccccc2)cc2oc([C@@H]3CCCN3C#N)nc12", "note": "[Example 122, (S)-2-(1-Cyanopyrrolidin-2-yl)-N-methyl-6-phenylbenzo[d]oxazole-4-carboxamide]", "IC50": "10000 to 100000"}
{"smiles": "N#CN1CCC(c2cccc(-c3ccccc3)c2N)C1", "note": "(stereo not shown) [Example 123, 3-(2-Amino-[1,1′-biphenyl]-3-yl)pyrrolidine-1-carbonitrile]", "IC50": "100 to 1000"}
{"smiles": "N#CN1CCC(c2cnc3cc(-c4ccccc4)ccn23)C1", "note": "(stereo not shown) [Example 124, 3-(7-Phenylimidazo[1,2-a]pyridin-3-yl)pyrrolidine-1-carbonitrile]", "IC50": "100 to 1000"}
{"smiles": "Cc1noc(C)c1-c1ccn2c(C3CCN(C#N)C3)cnc2c1", "note": "(stereo not shown) [Example 125, 3-(7-(3,5-Dimethylisoxazol-4-yl)imidazo[1,2-a]pyridin-3-yl)pyrrolidine-1-carbonitrile]", "IC50": "1000 to 10000"}
{"smiles": "N#Cc1cccc(-c2ccc3oc([C@@H]4CCCN4C#N)nc3c2)c1", "note": "[Example 126, (S)-2-(5-(3-Cyanophenyl)benzo[d]oxazol-2-yl)pyrrolidine-1-carbonitrile]", "IC50": "100 to 1000"}
{"smiles": "N#Cc1cccc(-c2ccc3oc([C@@H]4CCCN4C#N)nc3c2)n1", "note": "[Example 127, (S)-6-(2-(1-Cyanopyrrolidin-2-yl)benzo[d]oxazol-5-yl)picolinonitrile]", "IC50": "1000 to 10000"}
{"smiles": "N#Cc1cccc(-c2ccc3nc([C@@H]4CCCN4C#N)oc3c2)c1", "note": "[Example 128, (S)-2-(6-(3-Cyanophenyl)benzo[d]oxazol-2-yl)pyrrolidine-1-carbonitrile]", "IC50": "100 to 1000"}
{"smiles": "CCc1cccc(-c2ccc3oc([C@@H]4CCCN4C#N)nc3c2)c1", "note": "[Example 129, (S)-2-(5-(3-Ethylphenyl)benzo[d]oxazol-2-yl)pyrrolidine-1-carbonitrile]", "IC50": "100 to 1000"}
{"smiles": "CCc1cccc(-c2ccc3nc([C@@H]4CCCN4C#N)oc3c2)c1", "note": "[Example 130, (S)-2-(6-(3-Ethylphenyl)benzo[d]oxazol-2-yl)pyrrolidine-1-carbonitrile]", "IC50": "100 to 1000"}
{"smiles": "CCc1cccc(-c2cc(C(=O)NC)c3nc([C@@H]4CCCN4C#N)oc3c2)c1", "note": "[Example 131, (S)-2-(1-Cyanopyrrolidin-2-yl)-6-(3-ethylphenyl)-N-methylbenzo[d]oxazole-4-carboxamide]", "IC50": "1000 to 10000"}
{"smiles": "N#Cc1cccc(-c2ccc3nc([C@@H]4CCCN4C#N)oc3c2)n1", "note": "[Example 132, (S)-6-(2-(1-Cyanopyrrolidin-2-yl)benzo[d]oxazol-6-yl)picolinonitrile]", "IC50": "1000 to 10000"}
